Tests used:
[1] = refractive index (Na D-line) (dimensionless); xn = mol fraction of the nth substance listed; conditions: 298.15 K, 96 kPa, Liquid, Standard Abbe refractometry
[2] = xn = mol fraction of the nth substance listed; conditions: 96 kPa, Liquid, Vibrating tube method

CCC=O [propanal] + CCOS(=O)(=O)[O-].CCn1cc[n+](C)c1
[1]
Conditions | refractive index
x1 = 0.077 | 1.4789
x1 = 0.1702 | 1.4768
x1 = 0.2146 | 1.473
x1 = 0.3671 | 1.4641
x1 = 0.4184 | 1.4627
x1 = 0.5246 | 1.4532
x1 = 0.616 | 1.4467
x1 = 0.7074 | 1.4369
x1 = 0.8104 | 1.426
x1 = 0.9022 | 1.41
x1 = 0.9521 | 1.3854
x1 = 1 | 1.3648

[2]
Conditions | mass density [kg/m3]
288.14 K, x1 = 0.1702 | 1215.95
288.14 K, x1 = 0.4184 | 1170.49
288.14 K, x1 = 1 | 807.26
288.15 K, x1 = 0.2146 | 1209
288.15 K, x1 = 0.3671 | 1182.78
288.15 K, x1 = 0.5246 | 1139.5
288.15 K, x1 = 0.616 | 1108.79
288.15 K, x1 = 0.7074 | 1069.7
288.15 K, x1 = 0.8104 | 1012.95
288.15 K, x1 = 0.9022 | 936.46
288.15 K, x1 = 0.9521 | 876.3
288.16 K, x1 = 0.077 | 1227.88
293.15 K, x1 = 0.077 | 1224.4
293.15 K, x1 = 0.1702 | 1212.43
293.15 K, x1 = 0.5246 | 1136.2
293.15 K, x1 = 0.616 | 1105.04
293.15 K, x1 = 0.7074 | 1066.43
293.15 K, x1 = 1 | 801.06
293.16 K, x1 = 0.2146 | 1205.39
293.16 K, x1 = 0.3671 | 1178.94
293.16 K, x1 = 0.4184 | 1166.66
293.16 K, x1 = 0.8104 | 1008.26
293.16 K, x1 = 0.9022 | 931.16
293.16 K, x1 = 0.9521 | 870.71
298.15 K, x1 = 0.1702 | 1208.92
298.15 K, x1 = 0.5246 | 1132.3
298.15 K, x1 = 0.616 | 1101.02
298.15 K, x1 = 1 | 794.85
298.16 K, x1 = 0.077 | 1220.94
298.16 K, x1 = 0.2146 | 1201.81
298.16 K, x1 = 0.3671 | 1175.21
298.16 K, x1 = 0.4184 | 1162.88
298.16 K, x1 = 0.7074 | 1062.18
298.16 K, x1 = 0.8104 | 1003.73
298.16 K, x1 = 0.9022 | 925.91
298.16 K, x1 = 0.9521 | 865.19
303.15 K, x1 = 0.077 | 1217.48
303.15 K, x1 = 0.5246 | 1128.46
303.15 K, x1 = 0.7074 | 1058.06
303.15 K, x1 = 1 | 788.72
303.16 K, x1 = 0.1702 | 1205.39
303.16 K, x1 = 0.2146 | 1198.24
303.16 K, x1 = 0.3671 | 1171.5
303.16 K, x1 = 0.4184 | 1159.08
303.16 K, x1 = 0.616 | 1097.06
303.16 K, x1 = 0.8104 | 999.38
303.16 K, x1 = 0.9022 | 920.77
303.16 K, x1 = 0.9521 | 859.8
308.15 K, x1 = 0.077 | 1214.04
308.15 K, x1 = 0.2146 | 1194.69
308.15 K, x1 = 0.3671 | 1167.83
308.15 K, x1 = 0.4184 | 1155.38
308.15 K, x1 = 0.8104 | 995.49
308.15 K, x1 = 0.9022 | 915.5
308.15 K, x1 = 0.9521 | 854.41
308.16 K, x1 = 0.1702 | 1201.91
308.16 K, x1 = 0.5246 | 1124.75
308.16 K, x1 = 0.616 | 1093.39
308.16 K, x1 = 0.7074 | 1054.45
308.16 K, x1 = 1 | 782.55
313.14 K, x1 = 0.1702 | 1198.61
313.14 K, x1 = 0.616 | 1089.32
313.14 K, x1 = 0.7074 | 1050.7
313.15 K, x1 = 0.077 | 1210.68
313.15 K, x1 = 0.3671 | 1164.21
313.15 K, x1 = 0.4184 | 1151.8
313.15 K, x1 = 0.5246 | 1121.2
313.15 K, x1 = 0.8104 | 990.4
313.15 K, x1 = 0.9022 | 910.11
313.15 K, x1 = 0.9521 | 848.67
313.15 K, x1 = 1 | 776.53
313.16 K, x1 = 0.2146 | 1191.34

Source: the NIST ThermoML archive (doi:10.1016/j.jct.2011.01.008)
